Measurements: US20210395239A1 (Hoffmann-La Roche Inc., priority 2018, published 2021)

Legend:
CYP2D6 = target: T1, CYP2D6 (Homo sapiens, UniProt P10635); experiment: CYP inhibition assay in human liver microsome, CYP2D6; assay type: in vitro ADME; settings: human, human liver microsomes, probe dextromethorphan 5 μM, substrate dextromethorphan 5 μM, second value of 2C9/2D6/3A4
T1 construct: tissue BD-Gentest 452117; host or cells: human liver microsomes
Method in brief: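 Pooled human liver microsomes with a substrate for each CYP were incubated with compound at 37 °C after NADPH addition, for 5 min (CYP2D6: 10 min), then quenched with acetonitrile containing labelled metabolite standards. Metabolite/internal-standard peak area ratios were measured by RapidFire MS/MS. % inhibition was scaled between DMSO and standard-inhibitor controls.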

hERG channel = target: T2, hERG channel (Homo sapiens, UniProt Q12809); experiment: hERG channel inhibition assay (patch-clamp, CHOhERG cells); assay type: cell-based
T2 construct: expressed in transfected cells; host or cells: CHO (Chinese hamster ovary)
T2 sequence (Q12809 whole entry): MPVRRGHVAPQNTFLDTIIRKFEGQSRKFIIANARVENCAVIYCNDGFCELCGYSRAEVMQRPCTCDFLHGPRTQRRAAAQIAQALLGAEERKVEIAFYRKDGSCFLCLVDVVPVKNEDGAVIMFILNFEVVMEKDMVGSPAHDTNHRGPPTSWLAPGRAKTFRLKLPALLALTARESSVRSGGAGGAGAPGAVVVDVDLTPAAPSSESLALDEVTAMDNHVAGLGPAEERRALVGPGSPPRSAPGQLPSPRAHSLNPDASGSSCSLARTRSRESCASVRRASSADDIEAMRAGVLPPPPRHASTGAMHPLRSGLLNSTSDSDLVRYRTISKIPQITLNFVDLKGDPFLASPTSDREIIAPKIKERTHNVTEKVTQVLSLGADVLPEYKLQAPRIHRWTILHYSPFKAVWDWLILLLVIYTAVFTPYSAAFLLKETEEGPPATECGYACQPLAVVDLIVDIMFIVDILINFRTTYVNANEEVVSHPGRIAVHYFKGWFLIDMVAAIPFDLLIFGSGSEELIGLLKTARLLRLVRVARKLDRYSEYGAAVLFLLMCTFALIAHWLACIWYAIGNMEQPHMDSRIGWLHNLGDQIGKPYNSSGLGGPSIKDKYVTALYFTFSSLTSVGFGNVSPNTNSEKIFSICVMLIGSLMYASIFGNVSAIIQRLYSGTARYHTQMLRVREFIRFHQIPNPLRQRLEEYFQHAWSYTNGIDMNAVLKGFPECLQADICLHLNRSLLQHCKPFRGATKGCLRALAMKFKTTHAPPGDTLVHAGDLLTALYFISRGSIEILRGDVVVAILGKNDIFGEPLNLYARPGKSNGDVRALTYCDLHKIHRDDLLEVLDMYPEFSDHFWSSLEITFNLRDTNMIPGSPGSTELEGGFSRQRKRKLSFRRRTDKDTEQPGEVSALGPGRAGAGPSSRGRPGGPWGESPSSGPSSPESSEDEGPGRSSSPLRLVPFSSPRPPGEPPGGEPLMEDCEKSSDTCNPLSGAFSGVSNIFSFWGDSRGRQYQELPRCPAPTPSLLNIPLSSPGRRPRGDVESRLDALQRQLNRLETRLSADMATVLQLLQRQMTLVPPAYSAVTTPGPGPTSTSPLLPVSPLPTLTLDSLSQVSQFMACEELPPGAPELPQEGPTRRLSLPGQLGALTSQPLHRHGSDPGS
Method in brief: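 Whole-cell voltage-clamp recordings used CHO cells stably expressing human hERG, with IKhERG evoked by a voltage protocol at 0.1 Hz. Increasing compound concentrations were applied, each for 3–10 min to reach steady state, and current amplitude and kinetics were expressed relative to control (100%).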

T1 sequence (P10635 whole entry): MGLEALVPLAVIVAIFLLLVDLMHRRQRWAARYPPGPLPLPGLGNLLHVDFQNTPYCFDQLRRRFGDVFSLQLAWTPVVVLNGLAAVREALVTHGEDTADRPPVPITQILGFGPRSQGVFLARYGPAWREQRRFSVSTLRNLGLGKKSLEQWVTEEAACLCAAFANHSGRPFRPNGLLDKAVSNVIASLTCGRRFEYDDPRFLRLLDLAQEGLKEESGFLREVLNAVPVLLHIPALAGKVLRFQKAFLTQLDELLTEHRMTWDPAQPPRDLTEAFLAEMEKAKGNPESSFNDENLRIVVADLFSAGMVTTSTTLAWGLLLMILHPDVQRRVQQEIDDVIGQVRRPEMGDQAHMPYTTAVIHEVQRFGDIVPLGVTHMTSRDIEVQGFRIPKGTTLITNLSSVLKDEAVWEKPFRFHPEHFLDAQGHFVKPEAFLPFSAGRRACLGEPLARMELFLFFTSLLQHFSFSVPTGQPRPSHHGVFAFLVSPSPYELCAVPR

inhibition at 10 min, 10 µM (CYP2D6): 1.5%
SMILES: C[C@@H]1CN(c2ccc(C#N)n3ncc(F)c23)C[C@H](CN2CCN(c3ccc(N4C[C@H]5NCCO[C@@H]5C4)nc3)CC2)O1 [Example 168, 4-[(2S,6R)-2-[[4-[6-[(4aR,7aR)-3,4,4a,5,7,7a-hexahydro-2H-pyrrolo[3,4-b][1,4]oxazin-6-yl]-3-pyridyl]piperazin-1-yl]methyl]-6-methyl-morpholin-4-yl]-3-fluoro-pyrazolo[1,5-a]pyridine-7-carbonitrile]
IC20 (hERG channel; human, CHO cells stably expressing hERG (CHOhERG), patch-clamp, CHOhERG cells): 8.6 µM
IC50 (hERG channel; patch-clamp, CHOhERG cells): > 20 µM
hERG IC20/TLR7 IC50 (hERG channel; safety ratio): 430
hERG IC20/TLR8 IC50 (hERG channel; safety ratio): 150
hERG IC20/TLR9 IC50 (hERG channel; safety ratio): 74
